According to PubChem BioAssay AID274 (DTP/NCI, 2004):
Toxic doses and inconclusive results are not listed. The calls were made as follows: active = survival T/C of 150% or more; inactive = T/C below 125% in these data. Peptide text beside a SMILES is read from it. * marks the point of attachment. Trt = c1ccc(C(c2ccccc2)(c2ccccc2)*)cc1; Cbz = O=C(OCc1ccccc1)*; Bn = c1ccc(C*)cc1; βAla = NCCC(=O)O

System: BDF1 mice, Lewis lung carcinoma iv, survival T/C
Experiment: NCI In Vivo Anticancer Drug Screen. Data for tumor model Lewis Lung Carcinoma (intravenous) in B6D2F1 (BDF1) mice
Details: endpoint: median survival time, schedule: Q01DX009 (ip), higher = longer survival
Method: The antitumor activity of compounds was measured in mice bearing transplantable tumors. Survival or tumor size were measured and the results are expressed as the measurement made in the treated group (T) divided by the measurement made in the vehicle treated control group (C). The tumor model used in this assay is Lewis Lung Carcinoma (intravenous) in B6D2F1 (BDF1) mice

[1] = dose: 2.0 mg/kg/injection, vehicle: saline
[2] = dose: 4.0 mg/kg/injection, vehicle: saline
[3] = dose: 3.12 mg/kg/injection, vehicle: saline with Tween-80
[4] = dose: 6.25 mg/kg/injection, vehicle: saline with Tween-80
[5] = dose: 12.5 mg/kg/injection, vehicle: saline with Tween-80
[6] = dose: 25.0 mg/kg/injection, vehicle: saline with Tween-80
[7] = dose: 12.5 mg/kg/injection, vehicle: Klucel (hydroxypropylcellulose) (HPC)
[8] = dose: 25.0 mg/kg/injection, vehicle: Klucel (hydroxypropylcellulose) (HPC)
[9] = dose: 50.0 mg/kg/injection, vehicle: Klucel (hydroxypropylcellulose) (HPC)
[10] = dose: 100.0 mg/kg/injection, vehicle: Klucel (hydroxypropylcellulose) (HPC)
[11] = dose: 200.0 mg/kg/injection, vehicle: Klucel (hydroxypropylcellulose) (HPC)
[12] = dose: 6.25 mg/kg/injection, vehicle: saline
[13] = dose: 12.5 mg/kg/injection, vehicle: saline
[14] = dose: 25.0 mg/kg/injection, vehicle: saline
[15] = dose: 50.0 mg/kg/injection, vehicle: saline
[16] = dose: 50.0 mg/kg/injection, vehicle: saline with Tween-80
[17] = dose: 100.0 mg/kg/injection, vehicle: saline with Tween-80
[18] = dose: 200.0 mg/kg/injection, vehicle: saline with Tween-80
[19] = dose: 100.0 mg/kg/injection, vehicle: saline
[20] = dose: 200.0 mg/kg/injection, vehicle: saline

Measured: T/C

c1ccc([I+]c2ccccc2)cc1
inactive: dose: 1.0 mg/kg/injection, vehicle: saline 98 % of control | [1] 100 % of control | [2] 109 % of control

Cc1cc2cc3cc(C)c(N)cc3nc2cc1N
inactive: [3] 102 % of control | [4] 104 % of control | [5] 100 % of control | [6] 105 % of control

CC(C)(C)C1CCCCC1
inactive: [7] 94 % of control | [8] 98 % of control | [9] 95 % of control | [10] 102 % of control | [11] 95 % of control

CCOC(=O)C1C2OC(=O)C(C(=O)C2CN(CCCl)CCCl)C1C1CC=C(CC2=CCC(C3C4C(=O)OC(C(CN(CCCl)CCCl)C4=O)C3C(=O)OCC)CC2)CC1 (stereo unspecified)
inactive: [7] 104 % of control | [8] 104 % of control | [9] 102 % of control | [10] 111 % of control

O=C1C=CC(n2cc(F)c(=O)[nH]c2=O)O1 (stereo unspecified)
inactive: [12] 106 % of control | [13] 96 % of control | [14] 103 % of control | [15] 119 % of control

O=C(O)/C=C/C(=O)Nc1ccc(Cl)c(Cl)c1
inactive: [7] 102 % of control | [8] 99 % of control | [9] 98 % of control | [10] 104 % of control

COC1/C=C/C=C(/C)Cc2cc(O)c(Cl)c(c2)N(C)C(=O)CC(OC(=O)C(C)C)C2(C)OC2C(C)C2CC1(O)NC(=O)O2 (stereo unspecified)
inactive: dose: 0.12 mg/kg/injection, vehicle: saline + alcohol 106 % of control | dose: 0.25 mg/kg/injection, vehicle: saline + alcohol 110 % of control | dose: 0.5 mg/kg/injection, vehicle: saline + alcohol 105 % of control | dose: 1.0 mg/kg/injection, vehicle: saline + alcohol 105 % of control

Nc1nc2c(ncn2C2OC(CO)C(O)C2N)c(=O)[nH]1 (stereo unspecified)
inactive: dose: 3.0 mg/kg/injection, vehicle: saline with Tween-80 101 % of control | dose: 6.0 mg/kg/injection, vehicle: saline with Tween-80 110 % of control | dose: 12.0 mg/kg/injection, vehicle: saline with Tween-80 108 % of control | dose: 24.0 mg/kg/injection, vehicle: saline with Tween-80 99 % of control

OCCOCC(F)(F)F
inactive: [4] 98 % of control | [5] 86 % of control | [6] 106 % of control | [14] 89 % of control | [16] 90 % of control | [17] 102 % of control | [18] 103 % of control

O=C1C=CC(=Nc2ccc3c(c2)C(Br)c2ccccc2-3)O1 (stereo unspecified)
inactive: dose: 5.0 mg/kg/injection, vehicle: saline with Tween-80 115 % of control | dose: 10.0 mg/kg/injection, vehicle: saline with Tween-80 111 % of control | dose: 20.0 mg/kg/injection, vehicle: saline with Tween-80 112 % of control

Nc1ncnc2c1ncn2C1OC(COP(=O)(O)O)C(O)C1O (stereo unspecified)
inactive: dose: 12.5 mg/kg/injection, vehicle: water 104 % of control | dose: 25.0 mg/kg/injection, vehicle: water 112 % of control | dose: 50.0 mg/kg/injection, vehicle: water 100 % of control | [19] 97 % of control | dose: 100.0 mg/kg/injection, vehicle: water 103 % of control | [20] 118 % of control | dose: 200.0 mg/kg/injection, vehicle: water 100 % of control | dose: 400.0 mg/kg/injection, vehicle: saline 96 % of control | dose: 800.0 mg/kg/injection, vehicle: saline 108 % of control

O=C1NC(=O)/C(=C/C=C/c2ccccc2)S1
inactive: [5] 95 % of control | [6] 104 % of control | [16] 101 % of control | [17] 95 % of control | [18] 105 % of control | dose: 400.0 mg/kg/injection, vehicle: saline with Tween-80 104 % of control

CCCCCCCCCCCCN1C(C)=CS/C1=C\C=C\c1scc(C)[n+]1CCCCCCCCCCCC
inactive: dose: 0.78 mg/kg/injection, vehicle: saline with Tween-80 95 % of control | dose: 1.56 mg/kg/injection, vehicle: saline with Tween-80 98 % of control | [3] 91 % of control

O=CC(O)C(O)C(O)C(O)C(=O)O.[NH-]C1CCCCC1[NH-].[Pt+2] (stereo unspecified)
inactive: dose: 0.1 mg/kg/injection, vehicle: suspension in saline 92 % of control | dose: 0.2 mg/kg/injection, vehicle: suspension in saline 92 % of control | dose: 0.39 mg/kg/injection, vehicle: suspension in saline 104 % of control | dose: 0.78 mg/kg/injection, vehicle: suspension in saline 112 % of control | dose: 1.56 mg/kg/injection, vehicle: suspension in saline 108 % of control

COc1ccc2nonc2c1
active: [6] 191 % of control
inactive: [16] 109 % of control | [17] 101 % of control | [18] 103 % of control

Cc1ccc(N=NN(C)C)cc1
inactive: [6] 100 % of control | [16] 105 % of control | [17] 105 % of control

CC[N](CC)[Ge]([CH2]C)[CH2]C.CC[N](CC)[Ge]([CH2]C)[CH2]C
inactive: dose: 3.12 mg/kg/injection, vehicle: suspension in saline 113 % of control | dose: 6.25 mg/kg/injection, vehicle: suspension in saline 95 % of control | dose: 12.5 mg/kg/injection, vehicle: suspension in saline 96 % of control | dose: 25.0 mg/kg/injection, vehicle: suspension in saline 106 % of control | dose: 50.0 mg/kg/injection, vehicle: suspension in saline 100 % of control

COC(=O)C(CSC(c1ccccc1)(c1ccccc1)c1ccccc1)NC(=O)C(CSCc1ccccc1)NC(=O)CCNC(=O)OCc1ccccc1 (stereo unspecified) ({Cbz-βAla}-Cys(Bn)-Cys(Trt)-OMe; configuration not given here)
inactive: [7] 104 % of control | [8] 96 % of control | [9] 103 % of control | [10] 98 % of control | [11] 97 % of control

Nc1nc([Se])c2ncn(C3OC(CO)C(O)C3O)c2n1 (stereo unspecified)
inactive: [1] 96 % of control | [2] 99 % of control | dose: 8.0 mg/kg/injection, vehicle: saline 118 % of control

COc1cc2c(c(OC)c1OC)-c1ccc(OC)c(=O)cc1[C@@H](NC(C)=O)CC2
inactive: dose: 0.19 mg/kg/injection, vehicle: saline 102 % of control | dose: 0.38 mg/kg/injection, vehicle: saline 109 % of control

Nc1ccn([C@@H](C=O)O[C@@H](C=O)CO)c(=O)n1
inactive: [12] 96 % of control | [13] 105 % of control | [14] 100 % of control | [15] 96 % of control | [19] 97 % of control

O=C1C=CC(=O)O1 (tested in a mixture with another compound)
inactive: [14] 101 % of control | [15] 94 % of control | [19] 103 % of control | [20] 95 % of control
